Results from patent publication US11572341B2, “Biguanide compound and use thereof” (ImmunoMet Therapeutics Inc., priority 2014, dated 2023).
Where a name gives a salt, the structure may show the parent alone. Read-outs that look alike come from different tables or passages of the source.

How the values were obtained:
[1] = test system: A549 cell line; assay: Oxygen consumption rate (OCR) and extracellular acidification rate (ECAR) in A549 cells; format: cell-based; details: Homo sapiens, A549, 3 hrs, control group set at 0%, phenformin set at 100%
Protocol: A549 cell line (purchased from ATCC-American Type Culture Collection (ATCC)), a lung cancer cell line, is treated with the compounds and OCR and ECAR of the cells are measured and thereby those compounds which show an improved effect compared to phenformin are selected.
The cells are plated on an XF96 cell culture plate containing RPMI1640 medium at a concentration of 5×10^3 cells and cultured in 37° C., 5% CO2 conditions to allow them to be attached thereto.
After 24 hours, the cells are treated with the drug at a concentration of 10 μM for 2 hours, the existing medium is washed with a medium for XF analysis (15 mM D-glucose, 15 mM sodium pyruvate, 4 mM L-glutamine, pH 7.4) to remove the medium using a Prep station and treated again with the drugs, and cultured in 37° C., non-CO2 conditions in the Prep station for 1 hour. While culturing in the Prep station, a sensor cartridge is calibrated for 1 hour and added into a plate containing cells, and OCR and ECAR analyses are performed.
The measured values of OCR and ECAR of the compounds are calculated with reference to the measured values of OCR and ECAR of the control group which is set at 0% and the values of OCR and ECAR of phenformin, which was used as the reference drug, set at 100%, and those compounds which show an improved effect compared to those of phenformin are selected.
From the primarily-selected compounds, those compounds which show an improved effect are treated at various concentrations (0 μM, 0.5 μM, 1 μM, 5 μM, 10 μM, and 20 μM) and their reactivity according to concentration was obtained.

[2] = test system: HCT116 cells; assay: Inhibitory effect against cancer cell proliferation (MTT); format: cell-based, human; details: Homo sapiens, HCT-116; HCT116, MTT, 48 hours; read-out: IC50 (uM) @ HCT116
Protocol: The formazane crystals thus formed were dissolved using dimethyl sulfoxide (DMSO) and absorbance of the solution was measured at 560 nm. After culturing for 48 hours, […] synthesized in Examples was indicated as cell viability (%) according to each treated concentration.

[3] = test system: AMPKa [pT172]; assay: AMPKa activation [pT172] in MCF7 cell; format: cell-based

Compound `N=C(N)N/C(=N/C1CCCC1)NCc1ccc2c(c1)OCO2` [Example 107, N1-(benzo[d][1,3]dioxol-5-yl)methyl-N2-cyclopentyl Biguanide Hydrochloride] has an Emax at 10 µM ([1]; read-out: ECAR (A549, 3 hrs)) of -8.9% and an Emax at 10 µM ([1]; read-out: OCR (A549, 3 hrs)) of -4.4%.

In the case of `CC1CC(=O)N=C(NC(=N)N)N1.Cl` (stereo not shown) [Example 164, Hydrochloride], the Emax at 10 µM ([1]; read-out: ECAR (A549, 3 hrs)) is reported as 9% and the Emax at 10 µM ([1]; read-out: OCR (A549, 3 hrs)) is reported as -1%.

Work on `CN(C)C(=N)NC(=N)N(C)c1ccc(OC(F)(F)F)cc1` [Example 85, N1,N1-dimethyl-N5-methyl-N5-(4-trifluoromethoxy)phenyl Biguanide Hydrochloride] yielded an Emax at 10 µM ([1]; read-out: ECAR (A549, 3 hrs)) of 31% and an Emax at 10 µM ([1]; read-out: OCR (A549, 3 hrs)) of -6%.

Compound `Cl.N=C(N)NC(=N)Nc1ccccc1` [Example 113, N1-phenyl Biguanide Hydrochloride] has an Emax at 10 µM ([1]; read-out: ECAR (A549, 3 hrs)) of -24%, an Emax at 10 µM ([1]; read-out: OCR (A549, 3 hrs)) of -3% and an IC50 [2] of 72.7 µM. For the same compound, the “AMPKa activation [pT172] (Unit/ml) @ MCF7 cell” value (from here on “AMPKa activation [pT172]”) ([3]; 5 uM) was 9.9 Unit/ml, the “AMPKa activation [pT172]” value ([3]; 10 uM) was 10.1 Unit/ml and the “AMPKa activation [pT172]” value ([3]; 50 uM) was 28.6 Unit/ml.

With `N=C(N)NC(=N)NCc1ccco1` [Example 144, N1-(furan-2-yl)methyl Biguanide Hydrochloride] the Emax at 10 µM ([1]; read-out: ECAR (A549, 3 hrs)) was 7% and the Emax at 10 µM ([1]; read-out: OCR (A549, 3 hrs)) was 47%.

For `Cl.N=C(N)NC(=N)NCc1ccc(F)cc1` [Example 132, N1-(4-fluoro)benzyl Biguanide Hydrochloride], the Emax at 10 µM ([1]; read-out: ECAR (A549, 3 hrs)) was 44.7%, the Emax at 10 µM ([1]; read-out: OCR (A549, 3 hrs)) was 39.3% and the IC50 [2] was > 100 µM. The “AMPKa activation [pT172]” value ([3]; 5 uM) was 6.1 Unit/ml and the “AMPKa activation [pT172]” value ([3]; 50 uM) was 8.1 Unit/ml.

`Cl.N=C(NCCc1ccccc1Cl)NC(=N)N1CCCCC1` [Example 14, N1-piperidin-N5-2-chloro)phenethyl Biguanide Hydrochloride] was tested, and the Emax at 10 µM ([1]; read-out: ECAR (A549, 3 hrs)) was 63%, the Emax at 10 µM ([1]; read-out: OCR (A549, 3 hrs)) was -7% and the IC50 [2] was > 100 µM.

Work on `CN(C(=N)NC(=N)N1CCCC1)c1ccc(OC(F)(F)F)cc1` [Example 82, N1-pyrrolidin-N5-methyl-N5-(4-trifluoromethoxy)phenyl Biguanide Hydrochloride] yielded an Emax at 10 µM ([1]; read-out: ECAR (A549, 3 hrs)) of 6.9% and an Emax at 10 µM ([1]; read-out: OCR (A549, 3 hrs)) of 7.7%.

For `N=C(NC(=N)N1CCCC1)Nc1c(F)cccc1F` [Example 80, N1-pyrrolidin-N5-(2,6-difluoro)phenyl Biguanide Hydrochloride], the Emax at 10 µM ([1]; read-out: ECAR (A549, 3 hrs)) was 1% and the Emax at 10 µM ([1]; read-out: OCR (A549, 3 hrs)) was 3%.

For `CC(C)NC(=N)NC(=N)NCc1cccnc1.Cl` [Example 6, N1-isopropyl-N5-1-(pyridin-3-yl)methyl Biguanide Hydrochloride], the Emax at 10 µM ([1]; read-out: ECAR (A549, 3 hrs)) was 9.3%, the Emax at 10 µM ([1]; read-out: OCR (A549, 3 hrs)) was 16.7% and the “AMPKa activation [pT172]” value ([3]; 50 uM) was 4.8 Unit/ml.

`N=C(N)N/C(=N/CCc1ccccc1)NCCc1cccs1` [Example 103, N1 (2-thiophen-2-yl)ethyl-N2-phenethyl Biguanide Hydrochloride] showed an Emax at 10 µM ([1]; read-out: ECAR (A549, 3 hrs)) of -43% and an Emax at 10 µM ([1]; read-out: OCR (A549, 3 hrs)) of 36%.

In the case of `COc1ccc(CCCNC(=N)NC(=N)N)cc1` [Example 148, N1-(4-methoxy)phenylpropyl Biguanide Hydrochloride], the Emax at 10 µM ([1]; read-out: ECAR (A549, 3 hrs)) is reported as 160% and the Emax at 10 µM ([1]; read-out: OCR (A549, 3 hrs)) is reported as 1%.

With `Cl.N=C(NCCc1ccc(Cl)cc1)NC(=N)N1CCCCC1` [Example 13, N1-piperidin-N5-4-chloro)phenethyl Biguanide Hydrochloride] the Emax at 10 µM ([1]; read-out: ECAR (A549, 3 hrs)) was 61%, the Emax at 10 µM ([1]; read-out: OCR (A549, 3 hrs)) was -20% and the IC50 [2] was > 100 µM.

`C/N=C(/NC(=N)N1CCCC1)N(C)c1ccc(OC(F)(F)F)cc1` [Example 106, N1-methyl-N1-(4-trifluoromethoxy)phenyl-N2-methyl-N5-pyrrolidine Biguanide Hydrochloride] showed an Emax at 10 µM ([1]; read-out: ECAR (A549, 3 hrs)) of -7.5% and an Emax at 10 µM ([1]; read-out: OCR (A549, 3 hrs)) of -6.6%.

In the case of `N=C(N)N/C(=N/CCc1ccc2c(c1)OCO2)NCCc1cccs1` [Example 104, N1-2-thiophen-2-)ethyl-N2-2-benzo[d][1,3]dioxol-5-yl)ethyl Biguanide Hydrochloride], the Emax at 10 µM ([1]; read-out: ECAR (A549, 3 hrs)) is reported as -8.3% and the Emax at 10 µM ([1]; read-out: OCR (A549, 3 hrs)) is reported as 31.3%.

`N=C(N)NC(=N)NCCCc1ccc(F)cc1` [Example 147, N1-(4-fluoro)phenylpropyl Biguanide Hydrochloride] gave an Emax at 10 µM ([1]; read-out: ECAR (A549, 3 hrs)) of 126% and an Emax at 10 µM ([1]; read-out: OCR (A549, 3 hrs)) of 74%.

`N=C(N)NC(=N)NCc1ccccc1I` [Example 149, N1-(2-iodo)benzyl Biguanide Hydrochloride] gave an Emax at 10 µM ([1]; read-out: ECAR (A549, 3 hrs)) of 36% and an Emax at 10 µM ([1]; read-out: OCR (A549, 3 hrs)) of 20%.

`C/N=C(/NC(=N)N1CCCC1)Nc1ccc(OC(F)(F)F)cc1` [Example 105, N1-(4-trifluoromethoxy)phenyl-N2-methyl-N5-pyrrolidine Biguanide Hydrochloride] was tested, and the Emax at 10 µM ([1]; read-out: ECAR (A549, 3 hrs)) was -25.5% and the Emax at 10 µM ([1]; read-out: OCR (A549, 3 hrs)) was 25.1%.

For `CC1CCN(C(=N)NC(=N)Nc2ccc(OC(F)(F)F)c(F)c2)CC1.Cl` [Example 59, N1-(4-methyl)piperidin-N5-(3-fluoro-4-trifluoromethoxy)phenyl Biguanide Hydrochloride], the IC50 [2] was 2.3 µM, the “AMPKa activation [pT172]” value ([3]; 5 uM) was 9.8 Unit/ml and the “AMPKa activation [pT172]” value ([3]; 10 uM) was 13.3 Unit/ml. For the same compound, the “AMPKa activation [pT172]” value ([3]; 50 uM) was “cell death”.

`N=C(N)NC(=N)NCc1cccc(I)c1` [Example 150, N1-(3-iodo)benzyl Biguanide Hydrochloride] showed an Emax at 10 µM ([1]; read-out: ECAR (A549, 3 hrs)) of 125% and an Emax at 10 µM ([1]; read-out: OCR (A549, 3 hrs)) of 105%.

`CCOC1CCN(C(=N)NC(=N)N2CCCC(C)C2)CC1` (stereo not shown) [Example 46, N1-(3-methyl)piperidin-N5-(4-ethos)piperidine Biguanide Hydrochloride] was tested, and the IC50 [2] was > 100 µM, the “AMPKa activation [pT172]” value ([3]; 5 uM) was 3.8 Unit/ml and the “AMPKa activation [pT172]” value ([3]; 10 uM) was 3.6 Unit/ml. For the same compound, the “AMPKa activation [pT172]” value ([3]; 50 uM) was 5.4 Unit/ml.

With `Cl.N=C(NC(=N)Nc1cccc(C(F)(F)F)c1)Nc1cccnc1` [Example 41, N1-3-pyridin-N5-(3-trifluoromethyl)phenyl Biguanide Hydrochloride] the IC50 [2] was > 100 µM, the “AMPKa activation [pT172]” value ([3]; 5 uM) was 8.3 Unit/ml and the “AMPKa activation [pT172]” value ([3]; 10 uM) was 10.2 Unit/ml. The “AMPKa activation [pT172]” value ([3]; 50 uM) was 14.4 Unit/ml.

With `Cl.N=C(N)NC(=N)N(Cc1ccccc1)Cc1ccccc1` [Example 130, N1,N1-dibenzyl Biguanide Hydrochloride] the IC50 [2] was > 100 µM and the “AMPKa activation [pT172]” value ([3]; 50 uM) was 8.8 Unit/ml.

`CN1CCN(C(=N)NC(=N)Nc2cccc(OC(F)(F)F)c2)CC1.Cl` [Example 22, N1-(4-methyl)piperazin-N5-(3-trifluoromethoxy)phenyl Biguanide Hydrochloride] was tested, and the IC50 [2] was 35.2 µM, the “AMPKa activation [pT172]” value ([3]; 5 uM) was 3.8 Unit/ml and the “AMPKa activation [pT172]” value ([3]; 10 uM) was 10.1 Unit/ml. For the same compound, the “AMPKa activation [pT172]” value ([3]; 50 uM) was 22.3 Unit/ml.

`N=C(N)NC(=N)NCc1ccc(O)cc1F` [Example 146, N1-(2-fluoro-4-hydroxy)benzyl Biguanide Hydrochloride] gave an Emax at 10 µM ([1]; read-out: ECAR (A549, 3 hrs)) of 28% and an Emax at 10 µM ([1]; read-out: OCR (A549, 3 hrs)) of 109%.

In the case of `CN1CCN(C(=N)NC(=N)NCc2cccc(C(F)(F)F)c2)CC1.Cl` [Example 20, N1-(4-methyl)piperazin-N5-(3-trifluoromethyl)benzyl Biguanide Hydrochloride], the IC50 [2] is reported as > 100 µM, the “AMPKa activation [pT172]” value ([3]; 5 uM) is reported as 2.9 Unit/ml and the “AMPKa activation [pT172]” value ([3]; 10 uM) is reported as 4.5 Unit/ml. For the same compound, the “AMPKa activation [pT172]” value ([3]; 50 uM) was 5.6 Unit/ml.

For `Cl.N=C(NC(=N)N1CCCC1)Nc1cc(C(F)(F)F)ccc1Cl` [Example 76, N1-pyrrolidin-N5-(2-chloro-5-trifluoromethyl)phenyl Biguanide Hydrochloride], the IC50 [2] was 42.1 µM, the “AMPKa activation [pT172]” value ([3]; 5 uM) was 4.5 Unit/ml and the “AMPKa activation [pT172]” value ([3]; 10 uM) was 4.7 Unit/ml. For the same compound, the “AMPKa activation [pT172]” value ([3]; 50 uM) was 8.8 Unit/ml.
